Experimental data as given in publication PMC8449129, “Single tracer-based protocol for broad-spectrum kinase profiling in live cells with NanoBRET” (STAR Protocols, 2021).

Assays:
Test in all cases: cell-based
Set-up in all cases: NanoBRET live-cell target engagement; % occupancy from displacement of tracer K10 on NanoLuc-kinase fusions, mean n=3
Conditions in all cases: HEK293, read-out: % inhibition
[1] = target: T1, ICK (Homo sapiens, UniProt Q9UPZ9)
T1 construct: gene CILK1
Protocol: (§1) • 18. Prepare 10× test compounds in OptiMEM • a. Dilute the test compound to 1000× in DMSO (or the test compound solvent). […] Add 10μL per well of 10× test compound or 10μL of the DMSO control to the 96-well plates containing cells with 1× tracer. Mix on orbital shaker for 15 s at 900 rpm. • 20. Incubate the plate at 37°C + 5% CO2 incubator for 2hr. Allow plate to cool to RT for ∼15 min, then proceed to NanoBRET^TM Assay section below. • 21. Immediately before the BRET measurements, prepare 3× Complete NanoBRET^TM Nano-Glo® Substrate in OptiMEM without serum or phenol red. […] Mix gently by inverting 5–10 times in a conical tube. (The final concentration of Extracellular NanoLuc inhibitor in the 3× solution is 60 μM, for a working concentration of 20 μM.) • a. Note: 3× solutions should be used within 1.5 h after preparation. • 22. […] Incubate 2–3 min at RT. Following addition of NanoBRET^TM Nano-Glo® Substrate, measure donor emission (e.g., 450 nm) and acceptor emission (e.g., 610 nm or 630 nm) using a NanoBRET™-compatible luminometer. Fractional occupancy Quantitation • 2. Determine Fractional Occupancy with the following equation; % Occupancy = [1 – (X – Z)/( Y – Z)]∗100 • Where: • X = BRET in the presence of the test compound and tracer, • Y = BRET in the presence of the 100% BRET Control (Tracer + DMSO) • Z = BRET for the Zero BRET Control, e.g., • a. BRET from the NanoLuc Control Vector • b. BRET from Kinase/NanoLuc fusion + saturating dose of control test compound.

[2] = target: MAPK8 (Homo sapiens, UniProt P45983)
Protocol: as §1

[3] = target: RPS6KA3 (Homo sapiens, UniProt P51812)
Protocol: as §1

[4] = target: TBK1 (Homo sapiens, UniProt Q9UHD2)
Protocol: as §1

[5] = target: CAMK2D (Homo sapiens, UniProt Q13557)
Protocol: as §1

[6] = target: BRSK1 (Homo sapiens, UniProt Q8TDC3)
Protocol: as §1

[7] = target: TEC (Homo sapiens, UniProt P42680)
Protocol: as §1

[8] = target: CSNK2A2 (Homo sapiens, UniProt P19784)
Protocol: as §1

[9] = target: STK3 (Homo sapiens, UniProt Q13188)
Protocol: as §1

[10] = target: CDK1 (Homo sapiens, UniProt P06493)
Protocol: as §1

[11] = target: IGF1R (Homo sapiens, UniProt P08069)
Protocol: as §1

[12] = target: HIPK2 (Homo sapiens, UniProt Q9H2X6)
Protocol: as §1

[13] = target: FLT3 (Homo sapiens, UniProt P36888)
Protocol: as §1

[14] = target: ULK3 (Homo sapiens, UniProt Q6PHR2)
Protocol: as §1

[15] = target: PTK2 (Homo sapiens, UniProt Q05397)
Protocol: as §1

[16] = target: PLK3 (Homo sapiens, UniProt Q9H4B4)
Protocol: as §1

[17] = target: CAMK1 (Homo sapiens, UniProt Q14012)
Protocol: as §1

[18] = target: ULK1 (Homo sapiens, UniProt O75385)
Protocol: as §1

RPS6KA3, sequence (P51812 whole entry): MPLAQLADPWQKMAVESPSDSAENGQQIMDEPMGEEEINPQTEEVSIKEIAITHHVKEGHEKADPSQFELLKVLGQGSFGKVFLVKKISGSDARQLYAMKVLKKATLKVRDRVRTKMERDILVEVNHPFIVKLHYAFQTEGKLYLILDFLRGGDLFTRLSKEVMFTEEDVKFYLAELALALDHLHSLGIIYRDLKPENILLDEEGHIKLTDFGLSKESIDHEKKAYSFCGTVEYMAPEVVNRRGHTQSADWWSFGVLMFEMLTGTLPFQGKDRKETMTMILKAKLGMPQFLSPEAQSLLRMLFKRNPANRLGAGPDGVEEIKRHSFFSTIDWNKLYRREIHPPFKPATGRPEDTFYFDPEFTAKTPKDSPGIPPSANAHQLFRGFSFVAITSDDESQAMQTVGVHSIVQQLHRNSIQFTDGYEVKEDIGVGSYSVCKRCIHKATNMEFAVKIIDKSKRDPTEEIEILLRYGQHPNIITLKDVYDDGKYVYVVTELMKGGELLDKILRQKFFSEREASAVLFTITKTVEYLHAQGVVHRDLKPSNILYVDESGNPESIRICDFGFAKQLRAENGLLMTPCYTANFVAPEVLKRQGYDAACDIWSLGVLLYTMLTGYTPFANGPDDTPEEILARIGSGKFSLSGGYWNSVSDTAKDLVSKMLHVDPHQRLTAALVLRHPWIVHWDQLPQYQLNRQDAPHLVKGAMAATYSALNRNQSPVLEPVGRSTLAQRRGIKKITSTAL
CDK1, sequence (P06493 whole entry): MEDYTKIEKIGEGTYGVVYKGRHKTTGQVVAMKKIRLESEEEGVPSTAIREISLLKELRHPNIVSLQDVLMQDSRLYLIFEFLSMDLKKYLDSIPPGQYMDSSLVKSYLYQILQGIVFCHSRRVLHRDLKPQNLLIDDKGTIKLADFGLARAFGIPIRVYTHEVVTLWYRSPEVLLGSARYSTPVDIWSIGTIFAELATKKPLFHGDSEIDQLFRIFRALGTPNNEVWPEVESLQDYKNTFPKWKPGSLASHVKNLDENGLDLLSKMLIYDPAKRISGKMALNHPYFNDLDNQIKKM
CAMK1, sequence (Q14012 whole entry): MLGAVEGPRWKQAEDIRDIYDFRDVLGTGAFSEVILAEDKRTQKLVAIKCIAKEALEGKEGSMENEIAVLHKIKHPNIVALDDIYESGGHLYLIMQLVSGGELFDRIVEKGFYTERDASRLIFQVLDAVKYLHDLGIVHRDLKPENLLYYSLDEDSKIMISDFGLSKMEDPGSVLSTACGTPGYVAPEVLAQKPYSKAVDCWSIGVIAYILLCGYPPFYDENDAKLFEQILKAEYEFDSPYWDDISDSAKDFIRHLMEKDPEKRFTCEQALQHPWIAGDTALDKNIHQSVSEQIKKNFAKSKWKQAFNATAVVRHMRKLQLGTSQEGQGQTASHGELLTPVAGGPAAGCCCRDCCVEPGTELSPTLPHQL
IGF1R, sequence (P08069 whole entry): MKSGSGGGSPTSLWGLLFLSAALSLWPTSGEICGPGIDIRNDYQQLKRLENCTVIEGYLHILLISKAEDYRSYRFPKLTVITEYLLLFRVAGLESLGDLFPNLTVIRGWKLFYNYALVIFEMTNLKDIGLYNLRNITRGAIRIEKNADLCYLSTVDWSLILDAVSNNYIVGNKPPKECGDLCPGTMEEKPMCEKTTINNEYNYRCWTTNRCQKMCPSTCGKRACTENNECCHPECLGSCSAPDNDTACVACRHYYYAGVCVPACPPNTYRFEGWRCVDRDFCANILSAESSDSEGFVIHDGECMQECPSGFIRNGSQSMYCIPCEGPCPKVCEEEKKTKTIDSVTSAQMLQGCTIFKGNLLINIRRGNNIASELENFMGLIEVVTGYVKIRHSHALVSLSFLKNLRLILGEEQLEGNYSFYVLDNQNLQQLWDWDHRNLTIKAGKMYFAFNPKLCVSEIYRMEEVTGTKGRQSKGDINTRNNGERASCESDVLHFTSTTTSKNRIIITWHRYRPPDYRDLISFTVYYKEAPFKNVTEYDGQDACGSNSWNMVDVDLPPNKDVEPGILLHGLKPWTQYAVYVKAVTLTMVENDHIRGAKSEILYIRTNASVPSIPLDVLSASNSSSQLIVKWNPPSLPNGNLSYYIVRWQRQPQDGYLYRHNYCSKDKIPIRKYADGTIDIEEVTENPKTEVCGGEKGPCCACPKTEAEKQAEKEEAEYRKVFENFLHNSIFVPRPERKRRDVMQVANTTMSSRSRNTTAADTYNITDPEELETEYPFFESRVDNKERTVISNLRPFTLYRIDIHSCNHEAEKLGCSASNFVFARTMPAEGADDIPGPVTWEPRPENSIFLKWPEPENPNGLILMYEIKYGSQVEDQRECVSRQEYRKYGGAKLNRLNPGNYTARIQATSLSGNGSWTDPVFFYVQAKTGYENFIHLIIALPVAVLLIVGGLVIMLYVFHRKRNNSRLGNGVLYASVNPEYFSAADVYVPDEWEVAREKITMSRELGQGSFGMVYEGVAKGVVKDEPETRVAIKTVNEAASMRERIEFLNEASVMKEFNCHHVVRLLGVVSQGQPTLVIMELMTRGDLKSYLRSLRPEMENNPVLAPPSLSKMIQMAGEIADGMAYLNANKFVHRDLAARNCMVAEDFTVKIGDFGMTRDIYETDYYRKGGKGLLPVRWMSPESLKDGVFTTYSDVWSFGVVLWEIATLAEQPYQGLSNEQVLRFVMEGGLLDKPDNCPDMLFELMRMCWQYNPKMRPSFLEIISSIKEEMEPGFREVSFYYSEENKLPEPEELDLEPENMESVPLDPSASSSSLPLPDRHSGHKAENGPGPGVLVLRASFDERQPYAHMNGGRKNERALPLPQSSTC
CAMK2D, sequence (Q13557 whole entry): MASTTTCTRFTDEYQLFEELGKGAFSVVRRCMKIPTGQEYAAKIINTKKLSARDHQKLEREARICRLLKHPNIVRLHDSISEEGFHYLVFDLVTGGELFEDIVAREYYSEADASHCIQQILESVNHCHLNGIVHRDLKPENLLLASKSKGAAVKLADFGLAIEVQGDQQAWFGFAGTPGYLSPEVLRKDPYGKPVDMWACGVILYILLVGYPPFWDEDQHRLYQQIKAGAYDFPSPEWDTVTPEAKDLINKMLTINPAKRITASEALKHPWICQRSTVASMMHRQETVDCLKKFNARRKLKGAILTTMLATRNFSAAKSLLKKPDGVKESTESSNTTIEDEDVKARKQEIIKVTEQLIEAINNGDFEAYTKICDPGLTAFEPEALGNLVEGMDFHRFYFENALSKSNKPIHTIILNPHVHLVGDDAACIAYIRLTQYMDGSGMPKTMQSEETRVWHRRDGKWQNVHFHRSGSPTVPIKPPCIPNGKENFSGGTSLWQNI
FLT3, sequence (P36888 whole entry): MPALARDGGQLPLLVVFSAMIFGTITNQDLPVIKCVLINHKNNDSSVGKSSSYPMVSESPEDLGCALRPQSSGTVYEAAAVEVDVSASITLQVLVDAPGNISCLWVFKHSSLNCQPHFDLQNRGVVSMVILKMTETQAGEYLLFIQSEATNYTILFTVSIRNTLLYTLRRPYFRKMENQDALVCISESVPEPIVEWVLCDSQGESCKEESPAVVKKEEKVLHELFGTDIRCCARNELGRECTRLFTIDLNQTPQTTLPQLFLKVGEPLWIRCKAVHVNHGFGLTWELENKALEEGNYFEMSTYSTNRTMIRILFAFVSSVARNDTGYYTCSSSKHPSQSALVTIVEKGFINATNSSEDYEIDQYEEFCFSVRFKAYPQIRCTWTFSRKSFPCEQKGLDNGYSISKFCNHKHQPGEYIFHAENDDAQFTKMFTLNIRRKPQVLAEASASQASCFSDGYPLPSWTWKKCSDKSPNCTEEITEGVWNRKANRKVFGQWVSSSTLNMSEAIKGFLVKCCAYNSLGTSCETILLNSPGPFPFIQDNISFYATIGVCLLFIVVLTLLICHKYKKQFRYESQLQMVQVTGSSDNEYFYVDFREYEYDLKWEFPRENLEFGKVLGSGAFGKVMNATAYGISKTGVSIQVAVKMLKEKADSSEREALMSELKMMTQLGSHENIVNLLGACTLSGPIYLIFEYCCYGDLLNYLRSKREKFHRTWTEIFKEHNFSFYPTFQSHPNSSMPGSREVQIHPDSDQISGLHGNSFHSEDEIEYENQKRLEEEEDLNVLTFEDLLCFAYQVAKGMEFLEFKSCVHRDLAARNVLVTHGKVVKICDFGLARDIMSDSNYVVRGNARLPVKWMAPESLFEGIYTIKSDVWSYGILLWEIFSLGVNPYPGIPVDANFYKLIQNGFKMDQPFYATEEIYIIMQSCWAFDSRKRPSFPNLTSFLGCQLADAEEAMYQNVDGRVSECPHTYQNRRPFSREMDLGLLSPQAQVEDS
T1 sequence (Q9UPZ9 whole entry): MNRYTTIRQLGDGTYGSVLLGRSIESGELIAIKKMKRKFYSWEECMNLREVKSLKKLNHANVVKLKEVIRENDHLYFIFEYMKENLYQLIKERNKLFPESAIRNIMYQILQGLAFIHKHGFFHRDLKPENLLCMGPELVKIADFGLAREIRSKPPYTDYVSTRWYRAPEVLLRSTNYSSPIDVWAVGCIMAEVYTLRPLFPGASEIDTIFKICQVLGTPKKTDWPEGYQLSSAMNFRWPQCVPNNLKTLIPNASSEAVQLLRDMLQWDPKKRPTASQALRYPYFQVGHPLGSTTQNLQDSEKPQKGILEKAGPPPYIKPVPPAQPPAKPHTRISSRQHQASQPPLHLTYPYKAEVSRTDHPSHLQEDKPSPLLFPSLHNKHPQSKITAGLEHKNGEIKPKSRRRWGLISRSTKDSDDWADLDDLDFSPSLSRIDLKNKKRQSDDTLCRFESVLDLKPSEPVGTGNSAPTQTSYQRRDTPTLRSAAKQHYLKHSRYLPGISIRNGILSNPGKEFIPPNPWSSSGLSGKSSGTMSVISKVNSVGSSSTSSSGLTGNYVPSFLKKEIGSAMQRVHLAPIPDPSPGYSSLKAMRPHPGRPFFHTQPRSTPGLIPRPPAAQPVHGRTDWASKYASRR

inhibition at 1 µM [1]: 3% | inhibition at 1 µM [2]: -16% | inhibition at 1 µM [3]: -7% | inhibition at 1 µM [4]: -7% | inhibition at 1 µM [5]: 3% | inhibition at 1 µM [6]: -1% | inhibition at 1 µM [7]: -7% | inhibition at 1 µM [8]: -14% | inhibition at 1 µM [9]: 1% | inhibition at 1 µM [10]: 7% | inhibition at 1 µM [11]: 18% | inhibition at 1 µM [12]: 5% | inhibition at 1 µM [13]: -4% | inhibition at 1 µM [14]: 2% | inhibition at 1 µM [15]: 40% | inhibition at 1 µM [16]: 4% | inhibition at 1 µM [17]: 7% | inhibition at 1 µM [18]: -1%
Structure (SMILES): C[C@@H](Oc1cc(-c2cnn(C3CCNCC3)c2)cnc1N)c1c(Cl)ccc(F)c1Cl [crizotinib]
